{
  "source": "patent US20190167612A1",
  "about": "“PHARMACEUTICAL FORMULATION FOR ORAL ADMINISTRATION WITH CONTROLLED DISSOLUTION RATE COMPRISING SUSTAINED-RELEASE PELLETS CONTAINING TAMSULOSIN HYDROCHLORIDE” (HANMl PHARM. CO., LTD., priority 2016, published 2019)",
  "origin": "cited, not measured here",
  "key": {"[1]": {"conditions": "in vivo"}},
  "note": "Counter-ions that a name gives are not always drawn.",
  "data": [
    {"smiles": "CCOc1ccccc1OCCN[C@H](C)Cc1ccc(OC)c(S(N)(=O)=O)c1", "note": "[Tamsulosin hydrochloride, (R)-5-[2-[[2-(2-ethoxyphenoxy)ethyl]-amino]propyl]-2-methoxy-benzenesulfonamide]", "values": [
      {"measurement": "Solubility in water", "result": "slight solubility in water"},
      {"measurement": "Bioavailability", "setting": "[1]", "result": "≥ 90", "unit": "%"}
    ]}
  ]
}
